Reference: patent US10213451B2, “Methods and compounds for modulating the secretion or expression of adhesion proteins or angiopoietins of cells” (PACIFIC ARROW LIMITED, priority 2004, dated 2019)
Values after ≈ are worked out from the molar mass of the structure shown.

What was measured:
[1] = system: Fibronectin secretion from brain glioblastoma T98G cells; assay: Fibronectin secretion (Western blot), T98G cells; format: cell-based, human; settings: for inhibition at 20 µg/mL: 20 ug/ml
[2] = system: phosphatase, protein expression in ES2 cells; assay: Microarray gene expression, Table 19; format: cell-based, human
Experimental: (§1) Y/D is the ratio (in folds) of gene expression in cells treated with compound Y as compared with those of the no drug control (D),
(§2) YM/D is the ratio of gene expression in cells treated with compound YM (ACH-Y, Y without sugar moiety) compared with those of the no drug control (D)
(§3) Cell culture and drug-treatment.: ES2 cells were seeded in a T-25 flask with 4.5 million cells per flask for 24 hours. Cell culture was replaced with fresh medium with xanifolia-Y (Y) or DMSO no drug control (D) for 24 hours. Cells were then harvested for RNA isolation. Three experiments were done.
(§4) RNA extraction, labeling, hybridization, and data analysis. RNA was extracted from tumor cells using the Qiagen RNeasy Kit. RNA quality and quantity was checked by the Agilent BioAnalyzer and the NanoDrop® ND-1000 spectrophotometer respectively before further manipulation. The first and second cDNA strands were synthesized from 20 ng of total RNA using the Affymetrix T7 oligo(dT) primer protocol and kit for the two-cycle amplification. To produce amplified biotin-labeled-cRNA, the cDNA was […] by in vitro transcription using the MegaScript kit from Ambion. 15.0 μg of the labeled cRNA was fragmented and re-checked for concentration using the NanoDrop® ND-1000 spectrophotometer. A hybridization cocktail containing Affymetrix spike-in controls and fragmented labeled cRNA was loaded onto the Human U133 Plus 2.0 GeneChip® oligonucleotide array. The Affymetrix array (Affymetrix, Inc. Santa Clara, Calif.) is comprised of over 1,300,000 unique oligonucleotide features that represent greater than 38,500 well-substantiated human genes. The array was hybridized for 16 hours at 45° C. with rotation at 60 rpm then washed and stained with a strepavidin, R-phycoerythrin conjugate stain on the Affymetrix Fluidicis Station 450. Signal amplification was done using biotinylated antistreptavidin. The arrays were scanned using the GeneChip® 3000 confocal laser scanner with autoloader. The images were analyzed and quality control metrics recorded using Affymetrix GCOS software version 1.4. Lastly, the expression value for each gene was calculated using dChip PM-only model based or Plier algorithm.
(§5) Pairwise comparisons were made as follows: Treated vs. Control (Y vs. D), Modified Drug vs Control (YM/ACY-H vs. D) and Treated vs. Modified Drug (Y vs. YM/ACH-Y) Cel files analyzed using the Bioconductor package of R Statistical programming. Limma analysis generated a reasonable number of changing genes between the samples.
(§6) The raw data in the .CEL files were normalized by the GCRMA method (robust multi-array analysis). It is implemented in Bioconductor (http://www.bioconductor.org/). The raw signal intensity data were normalized, background corrected and summarized based on certain statistical models, and an expression value, in log 2-scale, is obtained per chip per probe set. Then the null hypothesis was tested that there's no significant changes in gene expression between the treatment pairs. This was done by LIMMA and is also implemented in Bioconductor. It uses empirical Bayes method to estimate the variance in gene expression. One comparison was made, namely, High Grade vs. Low Grade. The raw p-values were adjusted by the Benjamnin-Hochberg method for false discovery rate (FDR) control. All data sets contained a significant number of genes with a p-value less than 0.05, which is that the probability that a gene is NOT differential expressed (false positive) is 1:20.

[3] = system: CAM expression in ES2 cells; assay: Microarray gene expression, Table 4; format: cell-based, human; settings: for inhibiting ratio to the control, genes related to the adhesion molecule: span over different probes of Table 4
Experimental: as §1, §2, §3, §4, §5, §6

[4] = system: (bladder)TB9 cells / HTB-9; assay: MTT assay bladder cells; format: cell-based, human
Experimental: (§7) Cells. Human cancer cell lines were obtained from American Type Culture Collection: HTB-9 (bladder), HeLa-S3 (cervix), DU145 (prostate), H460 (lung), MCF-7 (breast), K562 (leukocytes), HCT116 (colon), HepG2 (liver), U2OS (bone), T98G (brain), SK-MEL-5 (Skin) and OVCAR-3 (ovary). The cells were grown in following culture media: HeLa-53, DU145, MCF-7, Hep-G2 and T98G are in MEN (Earle's salts); HTB-9, H460, K562 and OVCAR-3 in RPMI-1640; HCT-116 and U2OS in McCoy-5A. They are supplemented with 10% fetal calf serum, glutamine and antibiotics, and incubated in an incubator with 5% CO2 humidified at 37° C.
MTT Assay. The procedure for MTT assay followed the method described by Carmichael et al. (1987) with modifications. The cells were seeded into a 96-well plate at concentration of 10,000/well for HTB-9, HeLa, H460, HCT116, T98G and OVCAR-3), 15,000/well for DU145, MCF-7, HepG2 and U2OS), and 40,000/well for K562 for 24 hours before drug-treatment. The cells were then exposed to the drugs for 48 hours (72 hours for HepG2 and U2OS, and 96 hours for MCF-7). After the drug-treatment, MTT (0.5 mg/mL) was added to cultures and incubated for an hour. The formazan (product of the reduction of tetrazolium by viable cells) formed and was dissolved with DMSO and the O.D. at 490 nm, and was measured by an ELISA reader. The MTT level of the cells before drug-treatment was also measured (T0). The % cell-growth (% G) is calculated as: % G=(TD−T0/TC−T0)×100(1), where TC or TD represents O.D. readings of control or drug-treated cells. When T0>TD, then the cytotoxicity (LC) expressed as % of the control is calculated as: % LC=(TD−T0/T0)×100(2).

[5] = system: ovarian cancer cells; assay: MTT assay, growth of ovarian cancer cells (FIG. 3A, 3B); format: cell-based; settings: Homo sapiens, read-out: IC50, inhibiting growth of ovarian cancer cells
Experimental: as §7
MTT Assay. The procedure for MTT assay followed the method described by Carmichael et al. (1987) with modifications. […] The formazan (product of the reduction of tetrazolium by viable cells) formed and was dissolved with DMSO and the O.D. at 490 nm, and was measured by an ELISA reader. The MTT level of the cells before drug-treatment was also measured (T0). The % cell-growth (% G) is calculated as: % G=(TD−T0/TC−T0)×100(1), where TC or TD represents O.D. readings of control or drug-treated cells. When T0>TD, then the cytotoxicity (LC) expressed as % of the control is calculated as: % LC=(TD−T0/T0)×100(2).

[6] = system: RMG2; assay: MTT assay RMG2; format: cell-based; settings: Homo sapiens; RMG2, Clear cell
Experimental: Majority of ovarian cancers arise from the surface epithelium of ovary, most of them belong to the histological subtypes of clear cell and serous carcinoma. We obtained 10 more human ovarian carcinoma cell-lines of these histological subtypes for these studies. The inhibition activity exerted by Xanifolia-Y was determined with MTT assay.

[7] = system: Fibronectin secretion from bladder carcinoma cells (HTB-9); assay: Fibronectin secretion (Western blot), HTB-9 cells; format: cell-based, human; settings: 10 ug/ml

| SMILES | inhibition at 20 µg/mL ([1]; Homo sapiens, T98G) | PPP1R15A protein phosphatase 1, regulatory (inhibitor) subunit 15A, gene expression ratio to no drug control (D) ([2]; probe 37028_at) | PPP1R15A protein phosphatase 1, regulatory (inhibitor) subunit 15A, gene expression ratio to no drug control (D) ([2]; probe 202014_at) | DUSP10 dual specificity phosphatase 10, gene expression ratio to no drug control (D) ([2]; probe 215501_s_at) | DUSP10 dual specificity phosphatase 10, gene expression ratio to no drug control (D) ([2]; probe 221563_at) | ALCAM activated leukocyte cell adhesion molecule, gene expression ratio to no drug control (D) ([3]; probe 201951_at) | ALCAM activated leukocyte cell adhesion molecule, gene expression ratio to no drug control (D) ([3]; probe 201952_at) | SCAMP1 secretory carrier membrane protein 1, gene expression ratio to no drug control (D) ([3]; probe 206667_s_at) | SCAMP1 secretory carrier membrane protein 1, gene expression ratio to no drug control (D) ([3]; probe 212416_at) | SCAMP1 secretory carrier membrane protein 1, gene expression ratio to no drug control (D) ([3]; probe 212417_at) | SCAMP1 secretory carrier membrane protein 1, gene expression ratio to no drug control (D) ([3]; probe 212425_at) | TICAM2 toll-like receptor adaptor molecule 2, gene expression ratio to no drug control (D) ([3]; probe 228234_at) | TICAM2 toll-like receptor adaptor molecule 2, gene expression ratio to no drug control (D) ([3]; probe 239431_at) | ALCAM activated leukocyte cell adhesion molecule, gene expression ratio to no drug control (D) ([3]; probe 240655_at) | inhibiting ratio to the control, genes related to the adhesion molecule [3] | further results |
| --- | --- | --- | --- | --- | --- | --- | --- | --- | --- | --- | --- | --- | --- | --- | --- | --- |
| C/C=C(/C)C(=O)O[C@H]1[C@H](OC(=O)/C(C)=C\C)[C@@]2(CO)C(CC1(C)C)C1=CCC3[C@@]4(C)CC[C@H](O)C(C)(C)C4CC[C@@]3(C)[C@]1(C)[C@@H](O)[C@H]2O (stereo partly drawn) [ACH-Y] | 30% | 5.6 folds | 6.2 folds | 7.1 folds | 5.7 folds | −1.7 folds | −1.4 folds | −1.5 folds | −1.1 folds | −1.4 folds | −1.5 folds | −1.3 folds | −1.3 folds | −1.3 folds | −1.1 to −1.7 folds | – |
| C/C=C(/C)C(=O)O[C@H]1[C@H](OC(=O)/C(C)=C\C)[C@@]2(CO)C(CC1(C)C)C1=CCC3[C@@]4(C)CC[C@H](O[C@@H]5OC(C(=O)O)[C@@H](O)C(O[C@@H]6O[C@@H](CO)C(O)C6O)C5O[C@@H]5OC(CO)[C@H](O)C(O)C5O)C(C)(C)C4CC[C@@]3(C)[C@]1(C)[C@@H](O)[C@H]2O (stereo partly drawn) [Xanifolia-Y, 3-O-[β-D-galactopyranosyl (1→2)]-α-L-arabinofuranosy (1→3)-β-D-glucuronopyranosyl-21,22-O-diangeloyl-3β, 15α, 16α, 21β, 22α, 28-hexahydroxyolean-12-ene] | 74% | 2.4 folds | 2.6 folds | 3.2 folds | 3.8 folds | −1.9 folds | −1.9 folds | −1.3 folds | −1.3 folds | −1.4 folds | −1.7 folds | −1.3 folds | −1.3 folds | −1.6 folds | −1.3 to −1.9 folds | % inhibition of Fibronectin secretion ([1]; 10 ug/ml, listed as Y3): 26%; inhibition at 10 µg/mL ([1]; Homo sapiens, T98G, 10 ug/ml): 27%; growth of cells compared to the DMSO control (MTT) ([4]; HTB-9, 10 ug/ml): 77%-91%; IC50 ([4]; Homo sapiens, (bladder)TB9 cells, read-out: IC50): 5 µg/mL (≈ 4.38 µM); IC50 [5]: ~1.5 µg/mL (≈ 1.31 µM); IC50 [6]: 8.8 µM; % inhibition of Fibronectin secretion [7]: about 50%; % inhibition of Fibronectin secretion ([7]; listed as Y3): 51%; inhibition at 10 µg/mL ([7]; Homo sapiens): 50% |
